This note sets out measurements from ChEMBL document CHEMBL1154170, “2-Oxoglutarate analogue inhibitors of prolyl hydroxylase domain 2” (Bioorg Med Chem Lett, 2009).

In the assay the target is Egl nine homolog 1 (Homo sapiens, UniProt Q9GZT9). The assay is described as follows: Inhibition of human PHD2 catalytic domain (181-426) by FRET assay.
Sequence of Egl nine homolog 1 (Q9GZT9 whole entry, the tested form may be a part): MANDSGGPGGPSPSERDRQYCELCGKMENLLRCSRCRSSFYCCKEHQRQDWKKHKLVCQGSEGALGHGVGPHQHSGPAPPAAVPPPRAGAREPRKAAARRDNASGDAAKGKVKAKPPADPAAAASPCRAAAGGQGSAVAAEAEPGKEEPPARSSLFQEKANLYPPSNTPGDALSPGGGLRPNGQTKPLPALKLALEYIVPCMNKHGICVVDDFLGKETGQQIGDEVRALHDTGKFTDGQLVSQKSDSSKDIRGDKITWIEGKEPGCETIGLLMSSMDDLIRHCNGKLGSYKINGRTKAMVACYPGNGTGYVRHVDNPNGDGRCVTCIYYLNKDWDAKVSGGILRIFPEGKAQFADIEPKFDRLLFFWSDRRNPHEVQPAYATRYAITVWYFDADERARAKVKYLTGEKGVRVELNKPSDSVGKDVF
What is called IC50 is the concentration at which inhibition is half-maximal. Lower therefore signals greater potency. In turn, `O=C(O)CCC(=O)NO` registered a half-maximal inhibitory concentration (IC50) of 94 µM. Under `CCOC(=O)C(=O)NCC(=O)O` stands 78 µM; under `CCNC(=O)C(=O)NCC(=O)O`, over 1000 µM.

In the case of `O=C(O)CN1CCNC(=O)C1=O`, the IC50 is over 1000 µM. Turning to `O=C(O)CNC(=O)CC(=O)O`, the IC50 amounted to 398 µM.

Consider `CC(=O)CC(=O)NCC(=O)O`, for which the half-maximal inhibitory concentration (IC50) is over 1000 µM. Under `CCOC(=O)CC(=O)NCC(=O)O` stands over 1000 µM; under `O=C(O)CNC(=O)C(=O)C(=O)c1ccccc1`, 538 µM. Under `COC(=O)CNC(=O)C(=O)O` stands over 1000 µM; under `O=C(O)CNC(=O)NO`, over 1000 µM.

Consider `O=C(O)CNC(=O)C(=O)NCc1ccccc1`, for which the IC50 is over 1000 µM. Next, `CCNC(=O)C(=O)CCC(=O)O`: over 1000 µM; `O=C(O)CNC(=O)CC(=O)c1ccccc1`: over 1000 µM.

As for `COC(=O)C(=O)NCC(=O)O`, the midpoint of inhibition, the IC50, lay at 95 µM.

Regarding `CC(=O)CC(=O)CCC(=O)O` [SUCCINYLACETONE], the concentration for half-maximal inhibition (IC50) is 18 µM.
